Counter-ions that a name gives are not always drawn.
Which melting point does the source give for `CN1CCN(CCCNCc2ccc(-c3nc(-c4ccc(CNCCCN5CCN(C)CC5)cc4)c4ccccc4n3)cc2)CC1` (as salt: (cooh)2) [Compound 3e, 2,4-Bis{4-[(3–(4-methylpiperazin-1-yl)propyl)aminomethyl]phenyl}quinazoline] here?
Its melting point is 229 to 231 °C.

For `c1ccc2c(-c3ccc(CNCCCN4CCOCC4)cc3)nc(-c3ccc(CNCCCN4CCOCC4)cc3)nc2c1` (as salt: (cooh)2) [Compound 3f, 2,4-Bis{4-[(3-morpholinopropyl)aminomethyl]phenyl}quinazoline], which melting point is on record?
Its melting point is 183 to 185 °C.

With `c1ccc2c(-c3ccc(CNCCN4CCOCC4)cc3)nc(-c3ccc(CNCCN4CCOCC4)cc3)nc2c1` (as salt: (cooh)2) [Compound 3g, 2,4-Bis{4-[(2-morpholinoethyl)aminomethyl]phenyl}quinazoline] as the molecule, how does the melting point read?
The melting point was 195 to 197 °C.

With `COc1ccc2nc(-c3ccc(CNCCCCN(C)C)cc3)nc(-c3ccc(CNCCCCN(C)C)cc3)c2c1` (as salt: (cooh)2) [Compound 3h, 6-Methoxy-2,4-bis{4-[(4-dimethylaminobutyl)aminomethyl]phenyl}quinazoline] as the molecule, how does the melting point read?
Its melting point is 156 to 158 °C.

For `COc1ccc2nc(-c3ccc(CNCCCN(C)C)cc3)nc(-c3ccc(CNCCCN(C)C)cc3)c2c1` (as salt: (cooh)2) [Compound 3i, 6-Methoxy-2,4-bis{4-[(3-dimethylaminopropyl)aminomethyl]phenyl}quinazoline], which melting point is on record?
The melting point was 243 to 245 °C.

For `COc1ccc2nc(-c3ccc(CNCCN(C)C)cc3)nc(-c3ccc(CNCCN(C)C)cc3)c2c1` (as salt: (cooh)2) [Compound 3j, 6-Methoxy-2,4-bis{4-[(2-dimethylaminoethyl)aminomethyl]phenyl}quinazoline], which melting point is on record?
The melting point was 233 to 235 °C.

With `COc1ccc2nc(-c3ccc(CNCCCN4CCN(C)CC4)cc3)nc(-c3ccc(CNCCCN4CCN(C)CC4)cc3)c2c1` (as salt: (cooh)2) [Compound 3k, 6-Methoxy-2,4-bis{4-[(3–(4-methylpiperazin-1-yl)propyl)aminomethyl]phenyl}quinazoline] as the molecule, how does the melting point read?
The melting point was 227 to 229 °C.

Which melting point does the source give for `COc1ccc2nc(-c3ccc(CNCCN4CCN(C)CC4)cc3)nc(-c3ccc(CNCCN4CCN(C)CC4)cc3)c2c1` (as salt: (cooh)2) [Compound 3l, 6-Methoxy-2,4-bis{4-[(2–(4-methylpiperazin-1-yl)ethyl)aminomethyl]phenyl}quinazoline] here?
Its melting point is 229 to 231 °C.

With `COc1ccc2c(-c3ccc(CNCCCCN(C)C)cc3)nc(-c3ccc(CNCCCCN(C)C)cc3)nc2c1` (as salt: (cooh)2) [Compound 3m, 7-Methoxy-2,4-bis{4-[(4-dimethylaminobutyl)aminomethyl]phenyl}quinazoline] as the molecule, how does the melting point read?
The melting point was 216 to 218 °C.

Which melting point does the source give for `COc1ccc2c(-c3ccc(CNCCCN(C)C)cc3)nc(-c3ccc(CNCCCN(C)C)cc3)nc2c1` (as salt: (cooh)2) [Compound 3n, 7-Methoxy-2,4-bis{4-[(3-dimethylaminopropyl)aminomethyl]phenyl}quinazoline] here?
Its melting point is 223 to 225 °C.

For `COc1ccc2c(-c3ccc(CNCCN(C)C)cc3)nc(-c3ccc(CNCCN(C)C)cc3)nc2c1` (as salt: (cooh)2) [Compound 3o, 7-Methoxy-2,4-bis{4-[(2-dimethylaminoethyl)aminomethyl]phenyl}quinazoline], which melting point is on record?
The melting point was 234 to 236 °C.

With `COc1ccc2c(-c3ccc(CNCCCCN4CCN(C)CC4)cc3)nc(-c3ccc(CNCCCCN4CCN(C)CC4)cc3)nc2c1` (as salt: (cooh)2) [Compound 3p, 7-Methoxy-2,4-bis{4-[(4–(4-methylpiperazin-1-yl)butyl)aminomethyl]phenyl}quinazoline] as the molecule, how does the melting point read?
Its melting point is 222 to 224 °C.

Which melting point does the source give for `COc1ccc2c(-c3ccc(CNCCCN4CCN(C)CC4)cc3)nc(-c3ccc(CNCCCN4CCN(C)CC4)cc3)nc2c1` (as salt: (cooh)2) [Compound 3q, 7-Methoxy-2,4-bis{4-[(3–(4-methylpiperazin-1-yl)propyl)aminomethyl]phenyl}quinazoline] here?
The melting point was 229 to 231 °C.

For `COc1ccc2c(-c3ccc(CNCCN4CCN(C)CC4)cc3)nc(-c3ccc(CNCCN4CCN(C)CC4)cc3)nc2c1` (as salt: (cooh)2) [Compound 3r, 7-Methoxy-2,4-bis{4-[(2–(4-methylpiperazin-1-yl)ethyl)aminomethyl]phenyl}quinazoline], which melting point is on record?
Its melting point is 238 to 240 °C.

Which melting point does the source give for `CN(C)CCCNCc1cccc(-c2nc(-c3cccc(CNCCCN(C)C)c3)c3ccccc3n2)c1` (as salt: (cooh)2) [Compound 3s, 2,4-Bis{3-[(3-dimethylaminopropyl)aminomethyl]phenyl}quinazoline] here?
The melting point was greater than 260 °C.

With `CN1CCN(CCCNCc2cccc(-c3nc(-c4cccc(CNCCCN5CCN(C)CC5)c4)c4ccccc4n3)c2)CC1` (as salt: (cooh)2) [Compound 3t, 2,4-Bis{3-[(3–(4-methylpiperazin-1-yl)propyl)aminomethyl]phenyl}quinazoline] as the molecule, how does the melting point read?
The melting point was 252 to 254 °C.

Which melting point does the source give for `c1cc(CNCCCN2CCOCC2)cc(-c2nc(-c3cccc(CNCCCN4CCOCC4)c3)c3ccccc3n2)c1` (as salt: (cooh)2) [Compound 3u, 2,4-Bis{3-[(3-morpholinopropyl)aminomethyl]phenyl}quinazoline] here?
Its melting point is 186 to 188 °C.

Which melting point does the source give for `c1cc(CNCCN2CCOCC2)cc(-c2nc(-c3cccc(CNCCN4CCOCC4)c3)c3ccccc3n2)c1` (as salt: (cooh)2) [Compound 3v, 2,4-Bis{3-[(2-morpholinoethyl)aminomethyl]phenyl}quinazoline] here?
Its melting point is 234 to 236 °C.

— PMC6968685 (Journal of Enzyme Inhibition and Medicinal Chemistry, 2020)
